Laboratory results reported in patent US20220135526A1, “QUATERNARY AMMONIUM SALT COMPOUND, PREPARATION METHOD THEREFOR AND USE THEREOF” (WEST CHINA HOSPITAL, SICHUAN UNIVERSITY, priority 2019, published 2022).
Counter-ions that a name gives are not always drawn.

Tests used:
rat's sciatic nerve = assay: Local anesthetic effect after injection near the rat sciatic nerve (von Frey stimulation; Postural Extensor Thrust for motor function); assay type: in vivo; conditions: SD rats, 0.5 mL near sciatic nerve, compounds 20 mmol/mL; for Duration of motor block: Postural Extensor Thrust; for Duration of motor block / Duration of sensory block: levobupivacaine 0.75%, lidocaine 2%; for Local anesthesia onset time: levobupivacaine 0.75% (22 mmol/L), lidocaine 2% (74 mmol/L); for Duration of sensory block: von Frey
Experimental: Dosage: for lidocaine group, lidocaine was formulated with distilled water into a solution at the concentration of 2% (74 mmol/L); for levobupivacaine group, levobupivacaine was formulated with distilled water into a solution at the concentration of 0.75% (22 mmol/L); the compound of the present invention was formulated with distilled water into a solution at the concentration of […].
The injection volume for each rat was 0.5 mL, which was guided by a nerve locator and injected near the rat's sciatic nerve. Using von Frey stimulator, the rats were stimulated the soles of the feet in the injected side, to observe the effect of local anesthesia. Meanwhile, Postural Extensor Thrust (PET) was used to evaluate the motor function of the rat: the rat was lifted vertically and the hindlimb in the injected side pedaled on the platform of the electronic balance. […] When the limb was completely paralyzed, the reading was the limb's own weight, about 20 g. If the measured value was more than half of the difference between the baseline and the limb weight, the motor function was regarded as recovery, and if the value was […], the motor function was regarded as loss.

back skin of SD rat = assay: Local anesthetic effect by subcutaneous infiltration (back skin, Von Frey fiber 100 g); assay type: in vivo; conditions: SD rats, 0.5 mL subcutaneous in saline; compounds 6 mmol/L, controls 0.75% (22 mmol/L) and 2% (74 mmol/L)
Experimental: After the back of SD rat weighing 250-300 g (half female and half male) was shaved and disinfected, a circle with a diameter of about 1.5 cm was drawn on the side of the exposed back, and the circle is divided into 6 equal parts. […] Among the Von Frey fiber yarns, the one with a strength of 100 g was bound to the needle for local skin stimulation. One minute After the drug was injected, the above method was used to stimulate in 6 divisions. […] If back skin contraction was observed, the local anesthetic effect was considered as loss. […] Each compound was tested with 10 rats.

Structure (SMILES)	Duration of motor block (rat's sciatic nerve) [h]	Local anesthesia onset time (rat's sciatic nerve) [min]	Duration of sensory block (rat's sciatic nerve) [h]	Duration of local anesthesia (median) (back skin of SD rat) [h]	Local anesthesia onset time (median) (back skin of SD rat) [min]
CCCCN1CCCC[C@H]1C(=O)Nc1c(C)cccc1C [0.75% levobupivacaine hydrochloride, levobupivacaine hydrochloride, reference compound]	2.5	1	2.5	7	1
CCCCC[N+](CCCCC)(CCCN1CCCCC1C(=O)Nc1c(C)cccc1C)CC(=O)Nc1c(C)cccc1C (stereo not shown) [Example 1 product]	21	3	32	25	1
CCCCCCCCCC[N+](CCCCCCCCCC)(CCOCCN1CCCCC1C(=O)Nc1c(C)cccc1C)CC(=O)Nc1c(C)cccc1C (stereo not shown) [Example 2 product]	33	4	44	44	2
CCCCCC[N+](CCCCCC)(CCOCCOCCN1CCCCC1C(=O)Nc1c(C)cc(O)cc1C)CC(=O)Nc1c(C)cc(OC)cc1C (stereo not shown) [Example 4 product]	13	7	23	35	1
CCCCC[N+](CCCCC)(CCCN1CCCCC1C(=O)Nc1c(C)cccc1C)CC(=O)Nc1c(C)cccc1C.Cl.[Br-] (stereo not shown) [Example 10 product]	19	3	25	56	1
CCCCC[N+](CCCCCO)(CCCCCCN1CCCCC1C(=O)Nc1c(C)cccc1C)CC(=O)Nc1c(C)cccc1C.[Br-] (stereo not shown) [Example 12 product]	11	5	42	66	3
CCCCC[N+](CCO)(CCCCCCN1CCCCC1C(=O)Nc1c(C)cccc1C)CC(=O)Nc1c(C)cccc1C.[Br-] (stereo not shown) [Example 13 product]	14	4	55	53	4
CCCCC[N+](CCCO)(CCCCCCN1CCCCC1C(=O)Nc1c(C)cccc1C)CC(=O)Nc1c(C)cccc1C.[Br-] (stereo not shown) [Example 14 product]	13	5	41	75	2
CCCCC[N+](CO)(CCCCCCN1CCCCC1C(=O)Nc1c(C)cccc1C)CC(=O)Nc1c(C)cccc1C.[Br-] (stereo not shown) [Example 15 product]	16	5	44	73	4
CCCCC[N+](CCCCO)(CCCCCCN1CCCCC1C(=O)Nc1c(C)cccc1C)CC(=O)Nc1c(C)cccc1C.[Br-] (stereo not shown) [Example 16 product]	17	5	60	54	2
Cc1cccc(C)c1NC(=O)C[N+](CCO)(CCO)CCCCCCN1CCCCC1C(=O)Nc1c(C)cccc1C (stereo not shown) [Example 17 product]	18	5	37	56	2
Cc1cccc(C)c1NC(=O)C[N+](CCCO)(CCCCO)CCCCCCN1CCCCC1C(=O)Nc1c(C)cccc1C.[Br-] (stereo not shown) [Example 18 product]	16	2	38	49	1
Cc1cccc(C)c1NC(=O)C[N+](CO)(CCCCO)CCCCCCN1CCCCC1C(=O)Nc1c(C)cccc1C.[Br-] (stereo not shown) [Example 19 product]	10	5	39	62	1
CCCCC[N+](CCCCCCN1CCCCC1C(=O)Nc1c(C)cccc1C)(CCOCC)CC(=O)Nc1c(C)cccc1C (stereo not shown) [Example 20 product]	14	5	54	47	3
COCC[N+](CCCCCCN1CCCCC1C(=O)Nc1c(C)cccc1C)(CCOC)CC(=O)Nc1c(C)cccc1C.[Br-] (stereo not shown) [Example 21 product]	13	5	47	64	1
CCOCCC[N+](CCCCCCN1CCCCC1C(=O)Nc1c(C)cccc1C)(CCCOCC)CC(=O)Nc1c(C)cccc1C.[Br-] (stereo not shown) [Example 22 product]	15	3	47	63	2
CCCCC[N+](CCCCCCN1CCCCC1C(=O)Nc1c(C)cccc1C)(CCCOC)CC(=O)Nc1c(C)cccc1C.[Br-] (stereo not shown) [Example 23 product]	14	5	54	83	2
CCCCCCCCCC[N+](CCCCCCCC)(CCCCCCCCCCCN1CCCCC1C(=O)Nc1c(C)cc(C)cc1C)CC(=O)Nc1c(C)cccc1C (stereo not shown) [Example 24 product]	11	4	54	89	2
CCCCC[N+](CCCCCCCCN1CCCCCCC1C(=O)Nc1c(C)cccc1C)(CCOCC)CC(=O)Nc1c(C)cccc1C (stereo not shown) [Example 25 product]	12	5	44	82	3
CCCCC[N+](CCCCO)(CCCCCCCN1CCCCCC1C(=O)Nc1c(C)cccc1C)CC(=O)Nc1c(C)cccc1C (stereo not shown) [Example 26 product]	16	5	45	92	3
CCCOCCCC[N+](CCCCCC(=O)O)(CCCSCCCN1CCCCC1C(=O)Nc1c(C)cccc1C)CC(=O)Nc1c(C)cccc1C (stereo not shown) [Example 29 product]	15	5	50	73	2
Cc1cccc(C)c1NC(=O)C[N+]1(CCCOCCCN2CCCCC2C(=O)Nc2c(C)cccc2C)CC(C)OC(C)C1 (stereo not shown) [Example 32 product]	17	2	46	56	2
CCOCC[N+](CCCCO)(CCCCCCN1CCCCC1C(=O)Nc1c(C)cccc1C)CC(=O)Nc1c(C)cccc1C (stereo not shown) [Example 35 product]	13	2	54	92	2
COCC[N+](CCCCO)(CCCCCCN1CCCCC1C(=O)Nc1c(C)cccc1C)CC(=O)Nc1c(C)cccc1C (stereo not shown) [Example 36 product]	21	5	52	81	1
CCCCCC[N+](CCCCCCN1CCCCC1C(=O)Nc1c(C)cccc1C)(CCOCCC)CC(=O)Nc1c(C)cccc1C (stereo not shown) [Example 37 product]	17	1	45	64	1
CCCCCCCC[N+](CCCCCC(=O)O)(CCCOCCCN1CCCCC1C(=O)Nc1c(C)cccc1C)CC(=O)Nc1c(C)cccc1C (stereo not shown) [Example 39 product]	19	3	61	89	2
